Assays:
patients with PoPH [1] = experiment: PORTICO: serum NT-proBNP (incl. post-hoc 300 ng/L threshold shift); assay type: in vivo, human
Procedure: (v) Serum NT-proBNP: A blood sample was drawn at Baseline (Visit 2/Randomization), EOT-DB, and/or EOT-OL (whichever came last) for the analysis of serum NT-proBNP. Serum NT-proBNP samples were shipped to the central laboratory on dry ice as soon as possible after the blood sample had been drawn or stored frozen at −20° C. (−4° F.)±2° C. (±3.6° F.) until the shipment.
Statistical analysis: The change from baseline to Week 12 in mRAP, mPAP, cardiac index, TPR and SVO2 were analyzed on the FAS (with imputation) using an ANCOVA with factors for treatment group, background PAH-specific therapy at baseline (Yes/No as per IXRS, randomization stratification factor), region (Europe/North America/Latin America as per IXRS, randomization stratification factor) and a covariate for baseline corresponding variable. Other RHC variables are listed only. WHO FC is summarized on the FAS (with imputation) by time point and treatment group using frequency tables. […] Worsening was analyzed using a logistic regression model (exact) with covariates for treatment group, background PAH-specific therapy at baseline (Yes/No as per IXRS, randomization stratification factor) and region (Europe/North America/Latin America as per IXRS, randomization stratification factor). […] Change from baseline in 6MWD (up to Week 12) was analyzed using a mixed-effect model repeated measure (MMRM) with factors for treatment group, time point, treatment by time interaction, background PAH-specific therapy at baseline (Yes/No as per IXRS, randomization stratification factor) and region (Europe/North America/Latin America as per IXRS, randomization stratification factor), and covariates for baseline 6MWD and WHO FC. […] The ratio versus baseline in NT-proBNP was log-transformed and analyzed using an ANCOVA with covariates for treatment group, background PAH-specific therapy at baseline (Yes/No as per IXRS, randomization stratification factor), region (Europe/North America/Latin America as per IXRS, randomization stratification factor) and baseline log NT-proBNP. […]

patients with PoPH [2] = experiment: PORTICO safety: vital signs, body weight, BMI; details: in vivo
Excerpt: For the evaluation of treatment-emergent safety endpoints in the DB phase, the observation period for each individual subject started at the time of the first administration of macitentan or placebo and ended with the start of OL treatment or 30 days after DB treatment discontinuation (whichever occurred first). The safety variables listed below apply to the DB treatment-emergent period and the macitentan treatment-emergent period. The DB treatment-emergent period was defined as the period from the DB treatment start date up to the EOT-DB+30 days or to the EOT-DB for patients entering OL. The macitentan treatment-emergent period was defined as the period from the first intake of macitentan up to end of macitentan treatment (EOMT)+30 days. EOMT was defined as EOT-DB (for patient who received macitentan only in the DB period) or EOT-OL when applicable. […]

CCCNS(=O)(=O)Nc1ncnc(OCCOc2ncc(Br)cn2)c1-c1ccc(Br)cc1 [macitentan, N-[5-(4-Bromophenyl)-6-[2-[(5-bromo-2-pyrimidinyl)oxy]ethoxy]-4-pyrimidinyl]-N′-propylsulfamide]
Patients with NT-proBNP above 300 ng/L at baseline decreasing to below threshold after 12 weeks (patients with PoPH [1]; 6 of 16 macitentan patients, FAS no imputation, post-hoc): 37.5%
Geometric mean ratio of Week 12 to baseline NT-proBNP (patients with PoPH [1]; FAS with imputation, macitentan group): 0.86
NT pro-BNP shift: Week 12 Category 2 (patients with PoPH [1]; Total, Full analysis set, 10 mg, N = 43): 9 n (%)
Effect on vital signs, body weight or BMI (patients with PoPH [2]): no indication of any notable effect

Reference: patent US20220257595A1, “MACITENTAN FOR USE IN TREATING PORTOPULMONARY HYPERTENSION” (ACTELION PHARMACEUTICALS LTD, priority 2019, published 2022)
